From article PMC5674125, “Towards eco-friendly crop protection: natural deep eutectic solvents and defensive secondary metabolites” (Phytochemistry Reviews, 2017)

Legend:
Plagiodera versicolora = system: Plagiodera versicolora; design: method as in Jassbi (2003); conditions: ref Jassbi (2003); cited from earlier work
Spodoptera litura = conditions: 0.7–0.8 µg/ml; ref Mallikarjuna et al. (2004); cited from earlier work
Trichoplusia ni = system: Trichoplusia ni; design: method as in Beninger et al. (2004); conditions: 100 ppm (2.8 mM) and 1000 ppm (28 mM); ref Beninger et al. (2004); cited from earlier work
Helicoverpa zea = system: Helicoverpa zea; design: method as in Summers and Felton (1994); conditions: 4 mM, ref Summers and Felton (1994), cited from earlier work
Dalbulus maidis = system: Dalbulus maidis; design: method as in Dowd and Vega (1996); conditions: adults, 400 ppm, in vitro bioassay; ref Dowd and Vega (1996); cited from earlier work
Agelastica alni = system: Agelastica alni; design: method as in Ikonen et al. (2002); conditions: 2.48% by weight, dual choice bioassay; ref Ikonen et al. (2002); cited from earlier work
[1] = system: Frankliniella occidentalis; design: method as in Leiss et al. (2009a); conditions: 5% (5 mg/ml); ref Leiss et al. (2009a); cited from earlier work
Lymantria dispar [2] = system: Lymantria dispar; design: method as in Beninger et al. (2004); conditions: 100 ppm (2.8 mM) and 1000 ppm (28 mM); ref Beninger et al. (2004); cited from earlier work
Spodoptera frugiperda [3] = system: Spodoptera frugiperda; design: method as in Gallo et al. (2006); conditions: 0.1 mg/g; ref Gallo et al. (2006); cited from earlier work
Helicoverpa armigera [4] = system: Helicoverpa armigera; design: method as in Liu et al. (2015); conditions: 3 and 10 mg/g; ref Liu et al. (2015); cited from earlier work
[5] = Solubility in natural deep eutectic solvents (saturated solutions, UV-VIS); format: physicochemical; conditions: 1,2-propanediol: choline chloride: water (1:1:1), water 7.71%; 24 h at 50 °C; mean ± SD, n = 3
Method: As an extension of these studies, we have investigated the solubility of six insecticidal metabolites in a variety of NADES. The solvent selection framework consisted of the following steps: • Preliminary solvent screening: a pre-selected set of 20 NADES was used as a starting point to identify and rank potential NADES candidates (Table 3). Selection constraints were imposed on important properties such as viscosity and stability.
• Secondary screening: solubility tests were performed to determine the best solvent for each of the metabolites. Saturated solutions, generated by adding an excess amount of each compound to different NADES, were kept under constant stirring (1100 rpm) for 24 h at 50 °C. The 20 candidates were ranked in decreasing order of solvent power. • Solubility verification: For the verification of solubilities, samples were centrifuged for 5 min at 2000 rpm and subsequently diluted suitably with methanol for spectrophotometric analysis (UV-1800 UV–VIS spectrophotometer, Shimadzu Europe GmbH, Duisburg, Germany).

Acyrthosiphon pisum = system: Acyrthosiphon pisum; design: method as in Goławska et al. (2014); conditions: ref Goławska et al. (2014), cited from earlier work
Lymantria dispar [6] = system: Lymantria dispar; design: method as in Beninger and Abou-Zaid (1997); conditions: 0.05%, day 15; ref Beninger and Abou-Zaid (1997); cited from earlier work
Aphis fabae = system: Aphis fabae; design: method as in Lattanzio et al. (2000); conditions: 0.1 M; ref Lattanzio et al. (2000); cited from earlier work
Spodoptera frugiperda [7] = system: Spodoptera frugiperda; design: method as in Diaz Napal and Palacios (2015); conditions: 100 µg/cm^2; ref Diaz Napal and Palacios (2015); cited from earlier work
Bactrocera Cucurbitae = system: Bactrocera Cucurbitae; design: method as in Sharma and Sohal (2013); conditions: 125 ppm; ref Sharma and Sohal (2013); cited from earlier work
[8] = ref Dai et al. (2013, 2015); cited from earlier work
Helicoverpa armigera [9] = system: Helicoverpa armigera; design: method as in Li et al. (2016); conditions: ref Li et al. (2016), cited from earlier work
Pieris rassicae = system: Pieris rassicae; design: method as in Onkokesung et al. (2014); conditions: applied exogenously at 100 µM; ref Onkokesung et al. (2014); cited from earlier work

## O=C(/C=C/c1ccc(O)c(O)c1)O[C@@H]1C[C@](O)(C(=O)O)C[C@@H](O)[C@H]1O [Chlorogenic acid]
Plagiodera versicolora
  Amount with antifeedant activity: Antifeedant activity above 50 µg/disk
Spodoptera litura
  Development: Developmental retardation
  Larval mortality: > 60%
Trichoplusia ni
  Larval growth and development: Reduced larval growth and development at 100 ppm (2.8 mM) and 1000 ppm (28 mM)
Helicoverpa zea; chronic exposure
  Prooxidant effect on midgut proteins: oxidative stress in midgut proteins
Helicoverpa zea
  Development rate, survivorship and pupal weight: Development rate and pupal weight are negatively influenced
Dalbulus maidis
  Antifeedant activity: Antifeedant activity in adults at 400 ppm (in vitro bioassay)
Agelastica alni
  Feeding deterrence: Feeding deterrent at concentration of 2.48% by weight (dual choice bioassay)
[1]
  Relative growth rate and survival of first instar larva: Reduced relative growth rate and survival of first instar larva at 5% (5 mg/ml)
Lymantria dispar [2]
  Larval growth and development: Reduced larval growth and development at 100 ppm (2.8 mM) and 1000 ppm (28 mM)

## O=c1c(O)c(-c2ccc(O)c(O)c2)oc2cc(O)cc(O)c12 [Quercetin]
Spodoptera litura
  Development: Developmental retardation
  Larval mortality: > 60%
Spodoptera frugiperda [3]
  Larval mortality: 78% Larval mortality at 0.1 mg/g
Helicoverpa armigera [4]
  Growth, pupation, adult emergence, survival: Deleterious effects growth, pupation and adult emergence, and survivalat 3 and 10 mg/g
[5]
  Solubility: 44.34 ± 0.76 mg/g
Acyrthosiphon pisum; 100 µg cm^−3
  Probing and feeding deterrence: Probing and feeding deterrent
Acyrthosiphon pisum; higher concentration than 100 µg cm^−3
  Mortality, development time, fecundity: mortality and development time are increased whereas fecundity is decreased
Lymantria dispar [6]
  Larval weight reduction: Larval growth inhibitor. Larval weight reduced by 33% at 0.05% at day 15
Aphis fabae
  Progeny deposition: Inhibitory activity on progeny deposition 0.1 M
Spodoptera frugiperda [7]
  Feeding deterrence: Feeding deterrent (57%) at 100 µg/cm^2
Bactrocera Cucurbitae
  Food assimilation, larval and pupal weight: Growth regulator and or deterrent: reduction in food assimilation as well as larval and pupal weight at 125 ppm
[8]
  Solubility in NADES compared to aqueous solubility: significantly increased
Helicoverpa armigera [9]; 8 mg/g
  Reduction of pupation: 50%
Helicoverpa armigera [9]; 16 mg/g
  Reduction of larval weight: ~50%
Helicoverpa armigera [9]; 32 mg/g
  Mortality: > 80%

## C[C@@H]1O[C@@H](Oc2cc(O)c3c(=O)c(O[C@@H]4O[C@@H](C)[C@H](O)[C@@H](O)[C@H]4O)c(-c4ccc(O)cc4)oc3c2)[C@H](O)[C@H](O)[C@H]1O [kaempferol 3-O-rhamnoside 7-O-rhamnoside]
Pieris rassicae
  Growth: Growth negatively affected
